Legend:
[1] = Impedance measurements of supported bolalipid membranes on Au electrodes
Procedure: The effect of GA surface density on supported membrane impedance was determined using electrodes that had been coated with supported bolalipids by pretreatment with 2 prior to immersion for 24 hours into sonicated 1-GA vesicles containing varying amounts of GA. The 1-GA vesicle dispersions were prepared by sonicating dry 1-GA films in water (nominal GA:bolalipid molar ratios ranging from 1:500-1:50; 2 mM total lipid concentration). […] This observation is consistent with ^23Na NMR ion flux measurements made previously in our laboratory for gramicidin-containing 1 vesicles.
The effects of gramicidin loading on supported bolalipid membrane electrode impedance was further investigated in a sequential deposition experiment (FIG. 10). Adsorption of 2 onto Au electrodes for 1 hour to give partial surface coverage produced significant increases in impedance. Immersion of these pretreated electrodes into bolalipid vesicle solutions where gramicidin was either absent or present (i.e. 1 and 1-GA vesicles, respectively) produced membrane coated electrodes that had substantially different impedance characteristics in 10^−1-10^2 Hz frequency range. […]

[2] = Capacitance and single channel measurements of C20 bolalipid membranes; conditions: C20 bolalipid monolayer

Substance: gramicidin
- impedance of 2-treated electrode after immersion in 1-GA membrane solution ([1]; 1:100 molar ratio GA:1, 24 hours, compared with 2 or 2-1 coatings): observed impedances were lower
- effect of GA surface density on supported membrane impedance ([1]; GA:bolalipid molar ratios 1:500-1:50, 1-10^3 Hz range): impedance decreases with increasing GA concentration
- ion flux across the membrane [2]: resulted in ion flux across the membrane

Source: patent US7374944B2, “Device and bioanalytical method utilizing asymmetric biofunctionalized membrane” (Purdue Research Foundation, priority 2001, dated 2008)
